According to the CheMixHub viscosity set:
“And” between values parts separate entries of the source, which are not always exact repeats. Identical values can stand only once. ± gives the uncertainty stated by the source.

Test: xn = mol fraction of the nth substance listed

CN[C@@H]1[C@H](O[C@H]2[C@H](O[C@H]3[C@H](O)[C@@H](O)[C@H](NC(=N)N)[C@@H](O)[C@@H]3NC(=N)N)O[C@@H](C)[C@]2(O)C=O)O[C@@H](CO)[C@H](O)[C@H]1O.CN[C@@H]1[C@H](O[C@H]2[C@H](O[C@H]3[C@H](O)[C@@H](O)[C@H](NC(=N)N)[C@@H](O)[C@@H]3NC(=N)N)O[C@@H](C)[C@]2(O)C=O)O[C@@H](CO)[C@H](O)[C@H]1O.O=S(=O)(O)O.O=S(=O)(O)O.O=S(=O)(O)O + O
Conditions | viscosity
293.15 K, 101.3 kPa, x1 = 0.00018 | 1.053 ± 0.06 mPa·s
293.15 K, 101.3 kPa, x1 = 0.0003604 | 1.102 ± 0.061 mPa·s
293.15 K, 101.3 kPa, x1 = 0.00054 | 1.156 ± 0.061 mPa·s
293.15 K, 101.3 kPa, x1 = 0.0007203 | 1.207 ± 0.061 mPa·s
293.15 K, 101.3 kPa, x1 = 0.0009005 | 1.266 ± 0.061 mPa·s
293.15 K, 101.3 kPa, x1 = 0.00108 | 1.328 ± 0.061 mPa·s
293.15 K, 101.3 kPa, x1 = 0.00126 | 1.393 ± 0.061 mPa·s
293.15 K, 101.3 kPa, x1 = 0.001439 | 1.446 ± 0.061 mPa·s
298.15 K, 101 kPa, x1 = 7.6e-05 | 0.9256 ± 0.019 mPa·s
298.15 K, 101 kPa, x1 = 0.0001 | 0.9434 ± 0.0064 mPa·s
298.15 K, 101 kPa, x1 = 0.00015 | 0.9504 ± 0.02 mPa·s
298.15 K, 101 kPa, x1 = 0.000216 | 0.9744 ± 0.021 mPa·s
298.15 K, 101 kPa, x1 = 0.000286 | 0.9974 ± 0.021 mPa·s
298.15 K, 101 kPa, x1 = 0.0003 | 0.9849 ± 0.0066 mPa·s
298.15 K, 101 kPa, x1 = 0.000358 | 1.02 ± 0.021 mPa·s
298.15 K, 101.3 kPa, x1 = 0.00018 | 0.939 ± 0.06 mPa·s
298.15 K, 101.3 kPa, x1 = 0.0003604 | 0.985 ± 0.06 mPa·s
298.15 K, 101.3 kPa, x1 = 0.00054 | 1.037 ± 0.06 mPa·s
298.15 K, 101.3 kPa, x1 = 0.0007203 | 1.089 ± 0.061 mPa·s
298.15 K, 101.3 kPa, x1 = 0.0009005 | 1.147 ± 0.061 mPa·s
298.15 K, 101.3 kPa, x1 = 0.00108 | 1.192 ± 0.061 mPa·s
298.15 K, 101.3 kPa, x1 = 0.00126 | 1.249 ± 0.061 mPa·s
298.15 K, 101.3 kPa, x1 = 0.001439 | 1.296 ± 0.061 mPa·s
298.15 K, 101.33 kPa, x1 = 7e-07 | 0.8964 ± 0.042 mPa·s
298.15 K, 101.33 kPa, x1 = 9e-07 | 0.8973 ± 0.042 mPa·s
298.15 K, 101.33 kPa, x1 = 1e-06 | 0.8981 ± 0.042 mPa·s and 0.899 ± 0.042 mPa·s and 0.8998 ± 0.042 mPa·s
298.15 K, 101.33 kPa, x1 = 1.8e-06 | 0.9034 ± 0.042 mPa·s
298.15 K, 101.33 kPa, x1 = 2e-06 | 0.9025 ± 0.042 mPa·s and 0.9043 ± 0.042 mPa·s
298.15 K, 101.33 kPa, x1 = 2.2e-06 | 0.9051 ± 0.042 mPa·s
303.15 K, 101 kPa, x1 = 7.6e-05 | 0.8296 ± 0.017 mPa·s
303.15 K, 101 kPa, x1 = 0.0001 | 0.8493 ± 0.0058 mPa·s
303.15 K, 101 kPa, x1 = 0.00015 | 0.8528 ± 0.018 mPa·s
303.15 K, 101 kPa, x1 = 0.000216 | 0.8752 ± 0.018 mPa·s
303.15 K, 101 kPa, x1 = 0.000286 | 0.8971 ± 0.019 mPa·s
303.15 K, 101 kPa, x1 = 0.0003 | 0.8904 ± 0.0061 mPa·s
303.15 K, 101 kPa, x1 = 0.000358 | 0.919 ± 0.019 mPa·s
303.15 K, 101.3 kPa, x1 = 0.00018 | 0.844 ± 0.06 mPa·s
303.15 K, 101.3 kPa, x1 = 0.0003604 | 0.887 ± 0.06 mPa·s
303.15 K, 101.3 kPa, x1 = 0.00054 | 0.936 ± 0.06 mPa·s
303.15 K, 101.3 kPa, x1 = 0.0007203 | 0.981 ± 0.06 mPa·s
303.15 K, 101.3 kPa, x1 = 0.0009005 | 1.035 ± 0.06 mPa·s
303.15 K, 101.3 kPa, x1 = 0.00108 | 1.079 ± 0.061 mPa·s
303.15 K, 101.3 kPa, x1 = 0.00126 | 1.126 ± 0.061 mPa·s
303.15 K, 101.3 kPa, x1 = 0.001439 | 1.171 ± 0.061 mPa·s
303.15 K, 101.33 kPa, x1 = 5e-07 | 0.8016 ± 0.041 mPa·s
303.15 K, 101.33 kPa, x1 = 7e-07 | 0.8024 ± 0.041 mPa·s
303.15 K, 101.33 kPa, x1 = 9e-07 | 0.8032 ± 0.041 mPa·s
303.15 K, 101.33 kPa, x1 = 1e-06 | 0.804 ± 0.041 mPa·s and 0.8048 ± 0.041 mPa·s and 0.8056 ± 0.041 mPa·s
303.15 K, 101.33 kPa, x1 = 1.8e-06 | 0.8089 ± 0.041 mPa·s
303.15 K, 101.33 kPa, x1 = 2e-06 | 0.8064 ± 0.041 mPa·s and 0.8097 ± 0.041 mPa·s
303.15 K, 101.33 kPa, x1 = 2.2e-06 | 0.8105 ± 0.041 mPa·s
305.15 K, 101 kPa, x1 = 0.0002 | 0.826 ± 0.0053 mPa·s
305.15 K, 101 kPa, x1 = 0.0004 | 0.8609 ± 0.0055 mPa·s
308.15 K, 101 kPa, x1 = 7.6e-05 | 0.7487 ± 0.016 mPa·s
308.15 K, 101 kPa, x1 = 0.0001 | 0.7667 ± 0.0053 mPa·s
308.15 K, 101 kPa, x1 = 0.00015 | 0.771 ± 0.016 mPa·s
308.15 K, 101 kPa, x1 = 0.000216 | 0.7923 ± 0.017 mPa·s
308.15 K, 101 kPa, x1 = 0.000286 | 0.8134 ± 0.017 mPa·s
308.15 K, 101 kPa, x1 = 0.0003 | 0.8077 ± 0.0056 mPa·s
308.15 K, 101 kPa, x1 = 0.000358 | 0.834 ± 0.018 mPa·s
308.15 K, 101.3 kPa, x1 = 0.00018 | 0.764 ± 0.06 mPa·s
308.15 K, 101.3 kPa, x1 = 0.0003604 | 0.806 ± 0.06 mPa·s
308.15 K, 101.3 kPa, x1 = 0.00054 | 0.848 ± 0.06 mPa·s
308.15 K, 101.3 kPa, x1 = 0.0007203 | 0.893 ± 0.06 mPa·s
308.15 K, 101.3 kPa, x1 = 0.0009005 | 0.943 ± 0.06 mPa·s
308.15 K, 101.3 kPa, x1 = 0.00108 | 0.984 ± 0.06 mPa·s
308.15 K, 101.3 kPa, x1 = 0.00126 | 1.026 ± 0.06 mPa·s
308.15 K, 101.3 kPa, x1 = 0.001439 | 1.072 ± 0.061 mPa·s
310.15 K, 101 kPa, x1 = 0.0002 | 0.7448 ± 0.0049 mPa·s
310.15 K, 101 kPa, x1 = 0.0004 | 0.7702 ± 0.005 mPa·s
313.15 K, 101 kPa, x1 = 7.6e-05 | 0.6801 ± 0.014 mPa·s
313.15 K, 101 kPa, x1 = 0.0001 | 0.6932 ± 0.0049 mPa·s
313.15 K, 101 kPa, x1 = 0.00015 | 0.7016 ± 0.015 mPa·s
313.15 K, 101 kPa, x1 = 0.000216 | 0.722 ± 0.015 mPa·s
313.15 K, 101 kPa, x1 = 0.000286 | 0.7425 ± 0.016 mPa·s
313.15 K, 101 kPa, x1 = 0.0003 | 0.7345 ± 0.0052 mPa·s
313.15 K, 101 kPa, x1 = 0.000358 | 0.7623 ± 0.016 mPa·s
313.15 K, 101.3 kPa, x1 = 0.00018 | 0.698 ± 0.06 mPa·s
313.15 K, 101.3 kPa, x1 = 0.0003604 | 0.739 ± 0.06 mPa·s
313.15 K, 101.3 kPa, x1 = 0.00054 | 0.784 ± 0.06 mPa·s
313.15 K, 101.3 kPa, x1 = 0.0007203 | 0.822 ± 0.06 mPa·s
313.15 K, 101.3 kPa, x1 = 0.0009005 | 0.866 ± 0.06 mPa·s
313.15 K, 101.3 kPa, x1 = 0.00108 | 0.904 ± 0.06 mPa·s
313.15 K, 101.3 kPa, x1 = 0.00126 | 0.946 ± 0.06 mPa·s
313.15 K, 101.3 kPa, x1 = 0.001439 | 0.989 ± 0.06 mPa·s
315.15 K, 101 kPa, x1 = 0.0002 | 0.6863 ± 0.0046 mPa·s
315.15 K, 101 kPa, x1 = 0.0004 | 0.7114 ± 0.0047 mPa·s
318.15 K, 101 kPa, x1 = 7.6e-05 | 0.6228 ± 0.013 mPa·s
318.15 K, 101 kPa, x1 = 0.0001 | 0.6275 ± 0.0046 mPa·s
318.15 K, 101 kPa, x1 = 0.00015 | 0.6432 ± 0.014 mPa·s
318.15 K, 101 kPa, x1 = 0.000216 | 0.6631 ± 0.014 mPa·s
318.15 K, 101 kPa, x1 = 0.000286 | 0.683 ± 0.014 mPa·s
318.15 K, 101 kPa, x1 = 0.0003 | 0.6686 ± 0.0048 mPa·s
318.15 K, 101 kPa, x1 = 0.000358 | 0.7027 ± 0.015 mPa·s
